Assays:
[1] = target: T1, human B1R (bradykinin receptor 1) (Homo sapiens, UniProt P46663); assay: FLIPR Ca2+ assay (Fluo-4) on CHO K1 cells stably transfected with the human B1R gene (hB1R cells): % inhibition at 10 μM / IC50, agonist Lys-Des-Arg9-bradykinin; type: cell-based; conditions: for inhibition at 10 µM: CHO-K1, human B1R
T1 construct: expressed in transfected cells; host or cells: CHO K1 cells
T1 sequence (P46663 1-353): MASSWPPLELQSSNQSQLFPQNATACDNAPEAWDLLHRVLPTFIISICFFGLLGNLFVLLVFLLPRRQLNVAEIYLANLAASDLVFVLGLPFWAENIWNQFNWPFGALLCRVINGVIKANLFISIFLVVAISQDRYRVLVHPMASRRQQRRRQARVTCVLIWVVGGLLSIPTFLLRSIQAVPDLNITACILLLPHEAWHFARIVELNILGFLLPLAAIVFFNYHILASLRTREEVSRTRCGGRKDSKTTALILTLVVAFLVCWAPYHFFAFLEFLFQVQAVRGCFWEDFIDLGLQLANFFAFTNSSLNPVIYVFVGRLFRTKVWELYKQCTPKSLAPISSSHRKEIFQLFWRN
Summary of the method: (§1)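 Stably transfected CHO K1 cells loaded with Fluo-4 and read on FLIPR (λex 488, λem 540 nm; peak fluorescence). Test substance (10 μM) added first, then after 10–20 min the agonist at EC80; % inhibition versus maximum achievable inhibition. IC50 from several concentrations, n=2–3, N≥2.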

[2] = target: T2, rat B1R (bradykinin receptor 1) (Rattus norvegicus, UniProt P97583); assay: FLIPR Ca2+ assay (Fluo-4) on CHO K1 cells stably transfected with the B1R gene of the rat (rB1R cells): % inhibition at 10 μM / IC50, agonist Des-Arg9-bradykinin; type: cell-based; conditions: for inhibition at 10 µM: CHO-K1, rat B1R
T2 construct: expressed in transfected cells; host or cells: CHO K1 cells
T2 sequence (P97583 1-337): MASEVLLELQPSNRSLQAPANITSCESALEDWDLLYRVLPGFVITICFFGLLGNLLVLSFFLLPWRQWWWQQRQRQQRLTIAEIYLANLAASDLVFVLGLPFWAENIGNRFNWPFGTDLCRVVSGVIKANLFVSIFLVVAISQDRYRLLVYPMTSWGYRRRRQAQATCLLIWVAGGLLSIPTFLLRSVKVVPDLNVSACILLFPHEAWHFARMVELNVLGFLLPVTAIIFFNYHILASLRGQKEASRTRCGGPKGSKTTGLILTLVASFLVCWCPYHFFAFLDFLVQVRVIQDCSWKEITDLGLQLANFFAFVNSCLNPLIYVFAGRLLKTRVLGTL
Summary of the method: as §1

| Compound | inhibition at 10 µM [1] [%] | inhibition at 10 µM [2] [%] | % Inhibition (human B1R) at 10 μM ([1]; human B1R, 10 µM) [%] | % Inhibition (rat B1R) at 10 μM ([2]; rat B1R, 10 µM) [%] |
| --- | --- | --- | --- | --- |
| N#Cc1cccc(CN2CCC3(CC2)CCN(C(=O)c2ccc4c(c2)C(NC(=O)c2ccccc2Cl)CC4)C3)c1 (stereo not drawn) [IND_CC-562, 2-Chloro-N-[6-[8-[(3-cyano-phenyl)-methyl]-2,8-diazaspiro[4.5]decane-2-carbonyl]-2,3-dihydro-1H-inden-1-yl]-benzamide] | 27 | 104 | – | – |
| O=C(NC1CCc2ccc(C(=O)N3CCC4(CC3)CCN(c3ccncc3)CC4)cc21)c1cc(Cl)ccc1C(F)(F)F (stereo not drawn) [IND_CC-302, 5-Chloro-N-[6-(9-pyridin-4-yl-3,9-diazaspiro[5.5]undecane-3-carbonyl)-2,3-dihydro-1H-inden-1-yl]-2-(trifluoromethyl)-benzamide] | 99 | 106 | – | – |
| CC1(C)CC(NC(=O)c2cccc(C(F)(F)F)c2Cl)c2cc(C(=O)N3CCC4(CC3)CCN(c3ccncc3)CC4)ccc21 (stereo not drawn) [IND_CC-254, 2-Chloro-N-[3,3-dimethyl-6-(3-pyridin-4-yl-3,9-diazaspiro[5.5]undecane-9-carbonyl)-1,2-dihydro-inden-1-yl]-3-(trifluoromethyl)-benzamide] | 97 | 105 | – | – |
| O=C(NC1CCc2ccc(C(=O)N3CCC4(CC3)CCN(c3ccncc3)CC4)cc21)c1sccc1Cl (stereo not drawn) [Ind_CC-004, 3-chloro-N-[6-(9-pyridin-4-yl-3,9-diazaspiro[5.5]undecane-3-carbonyl)-2,3-dihydro-1H-inden-1-yl]-thiophene-2-carboxylic acid amide] | 99 | 98 | – | – |
| COc1ccc(C(=O)NC2CC(C)(C)c3ccc(C(=O)N4CCC5(CC4)CCN(c4ccncc4)CC5)cc32)c(F)c1 (stereo not drawn) [IND_CC-312, N-[3,3-Dimethyl-6-(3-pyridin-4-yl-3,9-diazaspiro[5.5]undecane-9-carbonyl)-1,2-dihydro-inden-1-yl]-2-fluoro-4-methoxy-benzamide] | 44 | 102 | – | – |
| O=C(/C=C/c1ccccc1Cl)NC1CCc2ccc(C(=O)N3CCC4(CC3)CCN(c3ccncc3)C4)cc21 (stereo not drawn) [Ind_CC-046, (E)-3-(2-chlorophenyl)-N-[6-(2-pyridin-4-yl-2,8-diazaspiro[4.5]decane-8-carbonyl)-2,3-dihydro-1H-inden-1-yl]-acrylamide] | 98 | 68 | – | – |
| O=C(NC1CCc2ccc(C(=O)N3CCC4(CC3)CCN(c3ccncc3)CC4)cc21)c1ccccc1C(F)(F)F (stereo not drawn) [Ind_CC-003, N-[6-(9-pyridin-4-yl-3,9-diazaspiro[5.5]undecane-3-carbonyl)-2,3-dihydro-1H-inden-1-yl]-2-(trifluoromethyl)-benzamide] | 99 | 101 | – | – |
| CC1(C)CC(NC(=O)c2cc(F)ccc2Cl)c2cc(C(=O)N3CCC4(CC3)CCN(c3ccncc3)CC4)ccc21 (stereo not drawn) [IND_CC-252, 2-Chloro-N-[3,3-dimethyl-6-(3-pyridin-4-yl-3,9-diazaspiro[5.5]undecane-9-carbonyl)-1,2-dihydro-inden-1-yl]-5-fluoro-benzamide] | 100 | 102 | – | – |
| O=C(NC1CCc2ccc(C(=O)N3CCC4(CCN(c5ccncc5)CC4)C3)cc21)C(c1ccccc1)c1ccccc1Cl (stereo not drawn) [Ind_CC-082, 2-(2-chlorophenyl)-2-phenyl-N-[6-(8-pyridin-4-yl-3,8-diazaspiro[4.5]decane-3-carbonyl)-2,3-dihydro-1H-inden-1-yl]-acetamide] | 100 | 101 | – | – |
| O=C(N[C@@H]1CCc2ccc(C(=O)N3CCC4(CCC(C(=O)N[C@@H]5CN6CCC5CC6)CC4)CC3)cc21)c1ccccc1Cl [Example H-62, N-[(5S)-1-Azabicyclo[2.2.2]octan-5-yl]-3-[(3R)-3-[(2-chloro-benzoyl)amino]-2,3-dihydro-1H-indene-5-carbonyl]-3-azaspiro[5.5]undecane-9-carboxylic acid amide] | 30 | 102 | – | – |
| CC(C)(C)CC(=O)N1CCC2(CC1)CCN(C(=O)c1ccc3c(c1)C(NC(=O)c1ccccc1Cl)CC3)C2 (stereo not drawn) [IND_CC-574, 2-Chloro-N-[6-[8-(3,3-dimethyl-butanoyl)-2,8-diazaspiro[4.5]decane-2-carbonyl]-2,3-dihydro-1H-inden-1-yl]-benzamide] | 14 | 101 | – | – |

The next lines start with the values.

| inhibition at 10 µM [1] [%] | inhibition at 10 µM [2] [%] | % Inhibition (human B1R) at 10 μM ([1]; human B1R, 10 µM) [%] | % Inhibition (rat B1R) at 10 μM ([2]; rat B1R, 10 µM) [%] | Compound |
| --- | --- | --- | --- | --- |
| 98 | 102 | – | – | O=C(N[C@@H]1CCc2ccc(C(=O)N3CCCC4(CCN(c5ccncc5)CC4)C3)cc21)c1ccccc1Cl [Example H-54, 2-Chloro-N-[(1R)-6-(9-pyridin-4-yl-2,9-diazaspiro[5.5]undecane-2-carbonyl)-2,3-dihydro-1H-inden-1-yl]-benzamide] |
| 98 | 105 | – | – | O=C(c1ccc2c(c1)CC[C@H]2N1Cc2cccc(Cl)c2C1=O)N1CCC2(CCN(c3ccncc3)CC2)C1 [Example H-160] |
| 100 | 105 | – | – | O=C(N[C@H]1CCc2ccc(C(=O)N3CCC4(CCN(c5ccncc5)CC4)C3)cc21)c1ccccc1Cl [Example H-20, 2-chloro-N-[(1S)-6-(8-pyridin-4-yl-3,8-diazaspiro[4.5]decane-3-carbonyl)-2,3-dihydro-1H-indecn-1-yl]-benzamide] |
| 100 | 104 | – | – | O=C(N[C@@H]1CCc2cc(C(=O)N3CCC4(CCN(c5ccncc5)CC4)C3)ccc21)c1ccccc1Cl [Example H-171] |
| 100 | 98 | – | – | O=C(N[C@@H]1CCc2ccc(C(=O)N3CCC4(CC3)CCN(c3ccncc3)CC4)cc21)c1cccc(Cl)c1Cl [Example H-95, 2,3-Dichloro-N-[(1R)-6-(9-pyridin-4-yl-3,9-diazaspiro[5.5]undecane-3-carbonyl)-2,3-dihydro-1H-inden-1-yl]-benzamide] |
| 97 | 102 | – | – | O=C(N[C@H]1CCCc2ccc(C(=O)N3CCC4(CCN(c5ccncc5)CC4)C3)cc21)c1ccccc1Cl [Example H-12, 2-chloro-N-[(1S)-7-(8-pyridin-4-yl-3,8-diazaspiro[4.5]decane-3-carbonyl]-1,2,3,4-tetrahydro-naphthalen-1-yl]-benzamide] |
| 100 | 104 | – | – | O=C(N[C@@H]1CCOc2c(F)cc(C(=O)N3CCC4(CC3)CCN(c3ccncc3)CC4)cc21)c1ccccc1Cl [Example H-78] |
| 25 | 77 | – | – | O=C(N[C@@H]1CCc2c(C(=O)N3CCC4(CC3)CCN(c3ccncc3)CC4)cccc21)c1ccccc1Cl [Example H-164, 2-Chloro-N-[(1R)-4-(9-pyridin-4-yl-3,9-diazaspiro[5.5]undecane-3-carbonyl)-2,3-dihydro-1H-inden-1-yl]-benzamide] |
| – | – | 99 | 100 | CN(C(=O)c1ccccc1Cl)C1CCc2ccc(C(=O)N3CCC4(CCN(c5ccncc5)CC4)C3)cc21 (stereo not drawn) [Example H-49, 2-chloro-N-methyl-N-[6-(8-pyridin-4-yl-3,8-diazaspiro[4.5]decane-3-carbonyl)-2,3-dihydro-1H-inden-1-yl]-benzamide] |
| 99 | 101 | – | – | CC1(C)Cc2ccc(C(=O)N3CCC4(CCN(c5ccncc5)CC4)C3)cc2C1NC(=O)c1ccccc1Cl (stereo not drawn) [Example H-47, 2-chloro-N-[2,2-dimethyl-6-(8-pyridin-4-yl-3,8-diazaspiro[4.5]decane-3-carbonyl)-1,3-dihydro-inden-1-yl]-benzamide] |
| 96 | 93 | – | – | COc1ccc2cc(C(=O)N[C@@H]3CCc4ccc(C(=O)N5CCC6(CC5)CCN(c5ccncc5)C6)cc43)ccc2c1 [Example H-68, 6-Methoxy-N-[(1R)-6-(3-pyridin-4-yl-3,8-diazaspiro[4.5]decane-8-carbonyl)-2,3-dihydro-1H-inden-1-yl]-naphthalene-2-carboxylic acid amid] |
| 99 | 92 | – | – | O=C(c1ccc2c(c1)[C@H](NS(=O)(=O)c1cccc(Cl)c1Cl)CC2)N1CCC2(CCN(c3ccncc3)CC2)C1 [Example H-113, 2,3-Dichloro-N-[(1R)-6-(8-pyridin-4-yl-3,8-diazaspiro[4.5]decane-3-carbonyl)-2,3-dihydro-1H-inden-1-yl]-benzenesulfonic acid amide] |
| 63 | 97 | – | – | O=C(NC1CCc2ccc(C(=O)N3CCC4(CCN(c5ccc(C(F)(F)F)cn5)CC4)C3)cc21)c1ccccc1Cl (stereo not drawn) [Example H-48, 2-chloro-N-[6-[8-[5-(trifluoromethyl)-pyridin-2-yl]-3,8-diazaspiro[4.5]decane-3-carbonyl]-2,3-dihydro-1H-inden-1-yl]-benzamide] |
